Values after ≈ are worked out from the molar mass of the structure shown. Where two headings read alike, the source gives them in different places.
Legend:
Aurora A = biological target: T1, Aurora A (Homo sapiens, UniProt O14965); assay: Inhibitory activity to Aurora A (FRET); format: biochemical; details: for inhibition at 1 µM: read-out: Aurora A inhibition % (1 × 10^−6 mol/L)
T1 construct: purchased
T1 sequence (O14965 1-403): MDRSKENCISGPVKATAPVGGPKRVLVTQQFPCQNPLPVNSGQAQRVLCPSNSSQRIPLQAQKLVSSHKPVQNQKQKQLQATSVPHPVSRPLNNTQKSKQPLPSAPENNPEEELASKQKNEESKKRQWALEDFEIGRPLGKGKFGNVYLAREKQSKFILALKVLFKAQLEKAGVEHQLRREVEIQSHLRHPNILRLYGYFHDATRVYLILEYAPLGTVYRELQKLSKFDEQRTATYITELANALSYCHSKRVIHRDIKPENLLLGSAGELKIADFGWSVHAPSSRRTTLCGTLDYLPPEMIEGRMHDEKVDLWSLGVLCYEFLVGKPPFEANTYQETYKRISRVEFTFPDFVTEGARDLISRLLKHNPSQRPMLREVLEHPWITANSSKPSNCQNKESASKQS
Experimental: The inhibitory activities of the synthesized compounds for Aurora A is determined by fluorescence resonance energy transfer (FRET) and were compared with the positive control drug so as to screen the compounds with better activities. Aurora A was purchased in the form of a kit or obtained through purification. Procedures: Aurora A is diluted to a suitable concentration with kinase diluent. The kinase reaction mixture contains Aurora A, peptide substrate, HEPES (pH7.5), BRIJ-35, MgCl2 and EDTA. Aurora A phospho-peptide substrate is used as the control of 100% phosphorylation and ATP-free as the control of 0% phosphorylation. After 1 h, the diluted Development Reagent A is added into the reaction system. Then the reaction is allowed to proceed for 1 h and then quenched with Stop Reagent. The excitation wavelength is 400 nm and the fluorescence intensity is detected at 445 nm (coumarin) and 520 nm (fluorescein). The inhibitions of the tested compounds are calculated according to the formula.

[1] = tested on: Candida albicans - ATCC 36082; assay: Antifungal activity, modified broth microdilution; format: cell-based; details: 48 hours at 35, approximately 50% reduction of growth; for MIC: Candida albicans, ATCC36082
Experimental: (§1) The test microorganisms are maintained on Sabourahd Dextrose Agar slant at 4[…]. Singlet suspension of each microorganism is prepared by growing the yeast overnight at 27[…] on a rotating drum in yeast-nitrogen base broth (YNB) with amino acids (Difco, Detroit, Mich.), (pH 7.0) and 0.05 morpholine propanesulphonic acid (MOPS). […] The activity of the test compound is determined using a modified broth microdilution technique. […] Well 12 serves as a growth control. […] Inoculated plate is incubated for 48 hours at 35 °C. […] Minimal Cytolytic Concentration (MCC) is determined by subculturing all wells from the 96-well plate onto a Sabourahd Dextrose Agar (SDA) plate, incubating for 1-2 days at 35 °C, and then checking viability.

Cryptococcus neoformans = assay: Antifungal activity, modified broth microdilution; format: cell-based; details: 48 hours at 35, approximately 50% reduction of growth; for MIC: Cryptococcus neoformans
Experimental: as §1

Candida tropicalis = assay: Antifungal activity, modified broth microdilution; format: cell-based; details: 48 hours at 35, approximately 50% reduction of growth; for MIC: Candida tropicalis
Experimental: as §1

Candida parapsilosis = assay: Antifungal activity, modified broth microdilution; format: cell-based; details: 48 hours at 35, approximately 50% reduction of growth; for MIC: Lodderomyces parapsilosis
Experimental: as §1

Phytophthora infestans = format: in vivo; set-up: concentration or dose not given beside the values
CDK2/A = biological target: T2, CDK2/A (Homo sapiens, UniProt P24941); assay: Inhibitory activity to CDK2 (FRET); format: biochemical; details: for inhibition at 1 µM: read-out: CDK2 inhibition % (1 × 10^−6 mol/L)
T2 construct: purchased
Experimental: CDK2/A was purchased in the form of a kit or obtained through purification.
Procedures: CDK2/A is diluted to a suitable concentration with kinase diluent. The kinase reaction mixture contains CDK2/A, peptide substrate, HEPES (pH7.5), BRIJ-35, MgCl2 and EDTA. CDK2 phospho-peptide substrate is used as the control of 100% phosphorylation and ATP-free as the control of 0% phosphorylation. After 1 h, the diluted Development Reagent A is added into the reaction system. Then the reaction is allowed to proceed for 1 h and then quenched with Stop Reagent. […] The inhibitions of the tested compounds are calculated according to the formula.

[2] = tested on: liver cancer cell line 7721; assay: Anti-tumor activity in vitro, MTT method; format: cell-based; details: MTT, 48 h; read-out: 7721 (IC50/μM)
lung cancer cell H1299 = assay: Anti-tumor activity in vitro, MTT method; format: cell-based; details: MTT, 48 h, read-out: H1299 (IC50/μM)
[3] = tested on: colon cancer cell line HCT116; assay: Anti-tumor activity in vitro, MTT method; format: cell-based; details: MTT, 48 h, first cell table, read-out: HCT-116 (IC50/μM)

SMILES: CN1CCN(Cc2ccc(NC(=O)c3n[nH]cc3Nc3nccc4sccc34)cc2)CC1 [Compound I-25, 4-(4-thieno[3,2-c]pyridylamino)-N-(4-((4-methyl-1-piperazinyl)methyl)phenyl)-1H-3-pyrazolecarboxamide]
- melting point: 268 to 270 °C
- inhibition at 1 µM (Aurora A): 59.7%
- MIC [1]: 3.38 µg/mL (≈ 7.55 µM)
- MIC (Cryptococcus neoformans): 2.83 µg/mL (≈ 6.32 µM)
- MIC (Candida tropicalis): 1.08 µg/mL (≈ 2.41 µM)
- MIC (Candida parapsilosis): 0.96 µg/mL (≈ 2.14 µM)
- Severity of tomato leaf blight (Phytophthora infestans; 0.0001 (unit not given)): ++ (15-40% blight)
- Severity of tomato leaf blight (Phytophthora infestans; 0.001 (unit not given)): ++ (15-40% blight)
- Severity of tomato leaf blight (Phytophthora infestans; 0.01 (unit not given)): + (0-15% blight)
- Severity of tomato leaf blight (Phytophthora infestans; 0.1 (unit not given)): −
- inhibition at 1 µM (CDK2/A): 59.5%

SMILES: O=C(Nc1c[nH]nc1-c1nc2ccc(CN3CCOCC3)cc2[nH]1)NC1CC1 [AT-9283, reference compound]
- IC50 [2]: 61.2 µM
- IC50 (lung cancer cell H1299; Homo sapiens, NCI-H1299): 10.8 µM
- inhibition at 1 µM (Aurora A): 77.4%
- inhibition at 1 µM (CDK2/A): 39.7%
- IC50 ([3]; Homo sapiens, HCT-116): 21.2 µM

SMILES: CN1CCN(Cc2ccc(NC(=O)c3n[nH]cc3Nc3ncnc4ccsc34)cc2)CC1 [Compound I-9, 4-(4-thieno[3,2-d]pyrimidinylamino)-N-(4-((4-methyl-1-piperazinyl)methyl)phenyl)-1H-3-pyrazole carboxamide]
- melting point: > 280 °C
- inhibition at 1 µM (Aurora A): 67.6%
- MIC [1]: 12.7 µg/mL (≈ 28.4 µM)
- MIC (Cryptococcus neoformans): 15.6 µg/mL (≈ 34.7 µM)
- MIC (Candida tropicalis): 10.7 µg/mL (≈ 23.9 µM)
- MIC (Candida parapsilosis): 8.7 µg/mL (≈ 19.4 µM)
- Severity of tomato leaf blight (Phytophthora infestans; 0.0001 (unit not given)): ++ (15-40% blight)
- Severity of tomato leaf blight (Phytophthora infestans; 0.001 (unit not given)): ++ (15-40% blight)
- Severity of tomato leaf blight (Phytophthora infestans; 0.01 (unit not given)): −
- Severity of tomato leaf blight (Phytophthora infestans; 0.1 (unit not given)): −
- inhibition at 1 µM (CDK2/A): 65%

SMILES: Cc1c[nH]c2ncnc(Nc3c[nH]nc3C(=O)Nc3ccc(CN4CCN(C)CC4)cc3)c12 [Compound I-15, 4-(4-(5-methyl-7H-pyrrolo[2,3-d]pyrimidinyl)amino)-N-(4-((4-methyl-1-piperazinyl)methyl)phenyl)-1H-3-pyrazolecarboxamide]
- Aurora A inhibition % (1 × 10^−6 mol/L) (Aurora A): 57.43%
- Candida albicans - ATCC 36082 MIC [1]: 6.77 µg/mL
- Cryptococcus neoformans MIC (Cryptococcus neoformans): 9.40 µg/mL
- Candida tropicalis MIC (Candida tropicalis): 5.00 µg/mL
- Candida parapsilosis MIC (Candida parapsilosis): 5.78 µg/mL
- Severity of tomato leaf blight (Phytophthora infestans; 0.0001 (unit not given)): ++ (15-40% blight)
- Severity of tomato leaf blight (Phytophthora infestans; 0.001 (unit not given)): ++ (15-40% blight)
- Severity of tomato leaf blight (Phytophthora infestans; 0.01 (unit not given)): + (0-15% blight)
- Severity of tomato leaf blight (Phytophthora infestans; 0.1 (unit not given)): −
- CDK2 inhibition % (1 × 10^−6 mol/L) (CDK2/A): 73.16%

SMILES: Cc1cc2ncnc(Nc3c[nH]nc3C(=O)Nc3ccc(CN4CCN(C)CC4)cc3)c2[nH]1 [Compound I-19, 4-(4-(6-methyl-5H-pyrrolo[3,2-d]pyrimidinyl)amino)-N-(4-((4-methyl-1-piperazinyl)methyl)phenyl)-1H-3-pyrazolecarboxamide]
- Aurora A inhibition % (1 × 10^−6 mol/L) (Aurora A): 70.28%
- Candida albicans - ATCC 36082 MIC [1]: 11.80 µg/mL
- Cryptococcus neoformans MIC (Cryptococcus neoformans): 12.86 µg/mL
- Candida tropicalis MIC (Candida tropicalis): 8.58 µg/mL
- Candida parapsilosis MIC (Candida parapsilosis): 6.45 µg/mL
- Severity of tomato leaf blight (Phytophthora infestans; 0.0001 (unit not given)): ++++ (>60% blight)
- Severity of tomato leaf blight (Phytophthora infestans; 0.001 (unit not given)): ++ (15-40% blight)
- Severity of tomato leaf blight (Phytophthora infestans; 0.01 (unit not given)): + (0-15% blight)
- Severity of tomato leaf blight (Phytophthora infestans; 0.1 (unit not given)): −
- CDK2 inhibition % (1 × 10^−6 mol/L) (CDK2/A): 65.01%

SMILES: O=C(Nc1ccc(CN2CCOCC2)cc1)c1n[nH]cc1Nc1ccnc2ccoc12 [Compound I-40, 4-(7-furo[3,2-b]pyridylamino)-N-(4-((4-morpholinyl)methyl)phenyl)-1H-3-pyrazolecarboxamide]
- melting point: 275 to 278 °C
- inhibition at 1 µM (Aurora A): 40.7%
- inhibition at 1 µM (CDK2/A): 20.2%

SMILES: O=C(Nc1ccc(CN2CCOCC2)cc1)c1n[nH]cc1Nc1ncnc2ccsc12 [Compound I-10, 4-(4-thieno[3,2-d]pyrimidinylamino)-N-(4-((4-morpholinyl)methyl)phenyl)-1H-3-pyrazolecarboxamide]
- melting point: 275 to 277 °C
- inhibition at 1 µM (Aurora A): 54.9%
- inhibition at 1 µM (CDK2/A): 56.2%

SMILES: O=C(Nc1ccc(CN2CCOCC2)cc1)c1n[nH]cc1Nc1nccc2sccc12 [Compound I-26, 4-(4-thieno[3,2-c]pyridylamino)-N-(4-((4-morpholinyl)methyl)phenyl)-1H-3-pyrazolecarboxamide]
- melting point: 269 to 271 °C
- inhibition at 1 µM (Aurora A): 61.1%
- inhibition at 1 µM (CDK2/A): 73.1%

SMILES: CN1CCN(Cc2ccc(NC(=O)c3n[nH]cc3Nc3ncnc4ccoc34)cc2)CC1 [Compound I-23, 4-(4-furo[3,2-d]pyrimidinylamino)-N-(4-((4-methyl-1-piperazinyl)methyl)phenyl)-1H-3-pyrazolecarboxamide]
- melting point: 277 to 279 °C
- inhibition at 1 µM (Aurora A): 59.7%
- MIC [1]: 2.92 µg/mL (≈ 6.75 µM)
- MIC (Cryptococcus neoformans): 5.82 µg/mL (≈ 13.5 µM)
- MIC (Candida tropicalis): 3.24 µg/mL (≈ 7.49 µM)
- MIC (Candida parapsilosis): 4.32 µg/mL (≈ 9.99 µM)
- Severity of tomato leaf blight (Phytophthora infestans; 0.0001 (unit not given)): +++ (40-60% blight)
- Severity of tomato leaf blight (Phytophthora infestans; 0.001 (unit not given)): ++ (15-40% blight)
- Severity of tomato leaf blight (Phytophthora infestans; 0.01 (unit not given)): −
- Severity of tomato leaf blight (Phytophthora infestans; 0.1 (unit not given)): −
- inhibition at 1 µM (CDK2/A): 60.6%

SMILES: Cc1c[nH]c2ncnc(Nc3c[nH]nc3C(=O)Nc3ccc(CN4CCOCC4)cc3)c12 [Compound I-16, 4-(4-(5-methyl-7H-pyrrolo[2,3-d]pyrimidinyl)amino)-N-(4-((4-morpholinyl)methyl)phenyl)-1H-3-pyrazolecarboxamide]
- IC50 [2]: 54.2 µM
- IC50 (lung cancer cell H1299): 89 µM
- Aurora A inhibition % (1 × 10^−6 mol/L) (Aurora A): 56.18%
- CDK2 inhibition % (1 × 10^−6 mol/L) (CDK2/A): 50.49%
- IC50 [3]: 32.3 µM

SMILES: O=C(Nc1ccc(CN2CCOCC2)cc1)c1n[nH]cc1Nc1nccc2ccsc12 [Compound I-30, 4-(7-thieno[2,3-c]pyridylamino)-N-(4-((4-morpholinyl)methyl)phenyl)-1H-3-pyrazolecarboxamide]
- melting point: 271 to 273 °C
- inhibition at 1 µM (Aurora A): 55.1%
- inhibition at 1 µM (CDK2/A): 73.1%

SMILES: O=C(Nc1ccc(CN2CCOCC2)cc1)c1n[nH]cc1Nc1ccnc2occc12 [Compound I-42, 4-(4-furo[2,3-b]pyridylamino)-N-(4-((4-morpholinyl)methyl)phenyl)-1H-3-pyrazolecarboxamide]
- melting point: 269 to 271 °C
- inhibition at 1 µM (Aurora A): 51.8%
- inhibition at 1 µM (CDK2/A): 54.2%

SMILES: CN1CCN(Cc2ccc(NC(=O)c3n[nH]cc3Nc3ncnc4cc[nH]c34)cc2)CC1 [Compound I-17, 4-(4-(5H-pyrrolo[3,2-d]pyrimidinyl)amino)-N-(4-((4-methyl-1-piperazinyl)methyl)phenyl)-1H-3-pyrazolecarboxamide]
- Aurora A inhibition % (1 × 10^−6 mol/L) (Aurora A): 62.17%
- Candida albicans - ATCC 36082 MIC [1]: 9.49 µg/mL
- Cryptococcus neoformans MIC (Cryptococcus neoformans): 7.99 µg/mL
- Candida tropicalis MIC (Candida tropicalis): 4.70 µg/mL
- Candida parapsilosis MIC (Candida parapsilosis): 2.76 µg/mL
- Severity of tomato leaf blight (Phytophthora infestans; 0.0001 (unit not given)): +++ (40-60% blight)
- Severity of tomato leaf blight (Phytophthora infestans; 0.001 (unit not given)): ++ (15-40% blight)
- Severity of tomato leaf blight (Phytophthora infestans; 0.01 (unit not given)): + (0-15% blight)
- Severity of tomato leaf blight (Phytophthora infestans; 0.1 (unit not given)): −
- CDK2 inhibition % (1 × 10^−6 mol/L) (CDK2/A): 65.96%

Reference: patent publication US9550792B2, “Polycyclic substituted pyrazole kinase activity inhibitors and use thereof” (priority 2013, dated 2017)
